Where a name gives a salt, the structure may show the parent alone.
How the values were obtained:
[1] = tested on: TLR4 activation-induced cytokine expression; conditions: cited from earlier work
From the text: The synaptic model of hyperalgesia is the LTP at C-fibre synapses. The induction of hyperalgesia and LTP by inducible mediators including TNFα was discovered and called gliogenic LTP [35]. […] The opioid-mediated effect is established by an exogenous peptide if an opioid receptor is activated or if an endogenous opioid release is induced.

[2] = tested on: chronic constriction injury model; conditions: chronic constriction injury model in rats; ref [75]; cited from earlier work
From the text: (§1) The similarity of the first two amino acids in the N-terminal region of CART(62-76) to endogenous opioid peptides raises the possibility that this fragment may also bind to […]. Specific binding studies are necessary to answer this question. […] Further studi ...

chronic pain states = conditions: low-dose NTX, humans; ref [76]; cited from earlier work
From the text: as §1

[3] = tested on: inflammatory hyperalgesia; conditions: naltrexone alone; ref [67]; cited from earlier work
From the text: (§2) The opioid-mediated effect is established by an exogenous peptide if an opioid receptor is activated or if an endogenous opioid release is induced.

[4] = tested on: TLR4 in the TLR4/myeloid differentiation protein-2 heterodimer; conditions: ref [68],[69],[70] (NTX, naloxone), [71] (CTAP); cited from earlier work
From the text: as §2

[5] = tested on: spinal astrocytes (TNFα secretion); assay: TNFα secretion of LPS-stimulated spinal astrocyte cultures, ELISA; type: cell-based, Wistar rat; conditions: 1 μg/mL LPS, control level set to 100%
Protocol: (§3) For the production of spinal cord astrocyte cultures, we followed the procedure already described by Pap et al. with slight modifications. Briefly, the whole spinal cord was removed from 7–8 day-old Wistar rat pups after decapitation and was placed into ice-cold dissecting buffer (136 mM NaCl, 5.2 mM KCl, 0.64 mM Na2HPO4, 0.22 mM KH2PO4, 16.6 mM glucose, 22 mM sucrose, 10 mM HEPES supplemented with 0.06 U/mL penicillin and 0.06 U/mL streptomycin). The isolated spinal cords were cleaned of the meninges, then were placed into fresh dissecting solution containing 0.025 g/mL bovine trypsin (Merck–Sigma-Aldrich), and were incubated at 37 °C for 30 min. Then, the solution was replaced by Minimum Essential Medium (MEM, Gibco, Life Technologies Ltd., Parsely, UK) supplemented with 10% Fetal Bovine Serum (FBS, Hyclone, GE Healthcare Bio-Sciences, Pittsburgh, PA, USA). […]
ELISA was performed as already described. […] Colour reaction was developed by o-phenylene-diamine, and the optical density was measured at λ = 492 nm by ELISA plate reader (Titertek, Uniscan, Flow Laboratories, Helsinki, Finland).
Optical density data were averaged, and the standard error of mean values was calculated for each treatment. […] Statistically significant differences were calculated by one-way ANOVA followed by Student-Newman-Keuls pairwise comparison. […]

[6] = tested on: spinal astrocytes (DPP4, TLR4, caveolin-1); assay: Immunocytochemistry of spinal astrocytes (DPP4, TLR4, caveolin-1); type: cell-based, Wistar rat
Protocol: as §3, with “USA). Finally, cells were suspended by gentle suspension of the tissue pieces by a Pasteur pipette. The cell number was identified, the cell density was set to 1 × 10^6/mL, and the cells were placed into 24 well tissue culture plates (0.5 mL/well). The cell cultures were kept at 37 °C in a 5% CO2 atmosphere, and the medium was replaced the following day and then every second day.” for “USA).”

[7] = tested on: spinal astrocytes (DPP4 expression); assay: DPP4 expression of spinal astrocytes, western blot; type: cell-based, Wistar rat; conditions: 1 μg/mL LPS
Protocol: as §3, with “USA). Finally, cells were suspended by gentle suspension of the tissue pieces by a Pasteur pipette. The cell number was identified, the cell density was set to 1 × 10^6/mL, and the cells were placed into 24 well tissue culture plates (0.5 mL/well).” for “USA).”
Fractions of 50 µg protein/lane cytosol were run on 10% polyacrylamide gels. […] Relative protein levels for DPP4 upon 16 h of LPS treatment were quantified by densitometry in three independent astrocyte cultures and analysed by the Kolmogorov-Smirnov statistical test.

[8] = tested on: hyperalgesia provoked by carrageenan or partial nerve ligation; conditions: no ref given; cited from earlier work
From the text: Further studies are needed to reveal the signalling mechanism to understand this process.

[9] = IPI content of L3-L5 spinal segments by mass spectrometry; type: in vivo, Wistar rat; conditions: CART(55-76)-treated inflamed rats; LC-MS/MS; p = 0.032 vs inflamed, p = 0.027 vs naive
Protocol: Three naïve adult male Wistar rats (NG10, NG11, and NG12), 3 rats with unilateral carrageenan-induced hind paw inflammation (GG9, GG10, and GG11), and 3 inflamed rats that received CART(55-76) peptide intrathecally (CG9, CG10, and CG11) were decapitated, and L3–L5 spinal cord segments were removed and snap frozen on dry ice. Tissue was homogenized by sonication in cold acetonitrile (4 °C) in a volume of 10 µL/mg of tissue and centrifuged for 10 min at 14,000 rpm. Supernatant was transferred into Eppendorf tubes and stored at −80 °C until use.
Standard solution of IPI was used for making the calibration curve in the range of 0–50 ng/mL. […] Water containing 0.1% formic acid (eluent A) and acetonitrile containing 0.1% formic acid (eluent B) were used for separation in gradient mode. […] The initial concentration was reached within 0.5 min, and the equilibration time was 5.5 min. The flow rate was 0.5 mL/minute. Column temperature was ambient. The injection volume was 10 µL. […] MRM transitions were identified in product ion scan mode. […] Dwell times were 150 ms for each transition.

Compound: Cn1c(=O)cc(N2CCC[C@@H](N)C2)n(Cc2ccccc2C#N)c1=O [algogliptin]
- Effect on TLR4 activation-induced cytokine expression ([1]; IL-6, IL-1β and other cytokines, ref [57]): decreased the TLR4 activation-induced IL-6, IL-1β, and other cytokine expression

Compound: O=C1CC[C@@]2(O)[C@H]3Cc4ccc(O)c5c4[C@@]2(CCN3CC2CC2)[C@H]1O5 [NTX, naltrexone hydrochloride]
- Antiallodynic effect [2]: antiallodynic effect
- Effect in chronic pain states (chronic pain states): effective in a variety of chronic pain states in humans
- Effect on inflammatory hyperalgesia [3]: no effect on inflammatory hyperalgesia
- TLR4 antagonism [4]: TLR4 antagonists
- Effect on TLR4 agonist-induced cytokine production ([1]; ref [72]): did not block the TLR4 agonist-induced cytokine production

Compound: lipopolysaccharide [LPS]
- Relative TNFα secretion with LPS [5]: 368 ± 9%
- DPP4 staining intensity ([6]; 1 μg/mL LPS, 6 h): considerably increased
- TLR4 and caveolin-1 subcellular localization ([6]; LPS-stimulated cultures, 1 μg/mL): both proteins were trafficked toward the cell surface
- DPP4 optical density value ([7]; 16 h (control 0.62 ± 0.084), densitometry): 1.08 ± 0.059
- DPP4 expression level increase ([7]; 16 h, vs control cultures, three independent cultures, ± SEM): 74.3 ± 9.6%

Compound: N#C[C@@H]1CCCN1C(=O)CNC12CC3CC(CC(O)(C3)C1)C2 [vildagliptin]
- Antihyperalgesic effect in neuropathic condition [8]: antihyperalgesic effects in a neuropathic condition

Compound: C=CCN1CC[C@]23c4c5ccc(O)c4O[C@H]2C(=O)CC[C@@]3(O)[C@H]1C5 [naloxone]
- TLR4 antagonism [4]: TLR4 antagonists

Compound: CC[C@H](C)[C@H](N)C(=O)N1CCC[C@H]1C(=O)N[C@H](C(=O)O)[C@@H](C)CC [IPI, isoleucine-proline-isoleucine]
- IPI concentration of spinal segments, change [9]: increased significantly

Compound: D-Phe-Cys-Tyr-D-Trp-Arg-Thr-Pen-Thr-NH2 [CTAP]
- TLR4 antagonism [4]: TLR4 antagonists

Source: paper PMC9865214 (International Journal of Molecular Sciences, 2023)
